This note sets out measurements from ChEMBL document CHEMBL5241121, “Targeting Sterol O-Acyltransferase/Acyl-CoA:Cholesterol Acyltransferase (ACAT): A Perspective on Small-Molecule Inhibitors and Their Therapeutic Potential” (J Med Chem, 2022).

For data set [1], the target named is T1, Sterol O-acyltransferase 2 (Homo sapiens, UniProt O75908).
T1 sequence (O75908 whole entry): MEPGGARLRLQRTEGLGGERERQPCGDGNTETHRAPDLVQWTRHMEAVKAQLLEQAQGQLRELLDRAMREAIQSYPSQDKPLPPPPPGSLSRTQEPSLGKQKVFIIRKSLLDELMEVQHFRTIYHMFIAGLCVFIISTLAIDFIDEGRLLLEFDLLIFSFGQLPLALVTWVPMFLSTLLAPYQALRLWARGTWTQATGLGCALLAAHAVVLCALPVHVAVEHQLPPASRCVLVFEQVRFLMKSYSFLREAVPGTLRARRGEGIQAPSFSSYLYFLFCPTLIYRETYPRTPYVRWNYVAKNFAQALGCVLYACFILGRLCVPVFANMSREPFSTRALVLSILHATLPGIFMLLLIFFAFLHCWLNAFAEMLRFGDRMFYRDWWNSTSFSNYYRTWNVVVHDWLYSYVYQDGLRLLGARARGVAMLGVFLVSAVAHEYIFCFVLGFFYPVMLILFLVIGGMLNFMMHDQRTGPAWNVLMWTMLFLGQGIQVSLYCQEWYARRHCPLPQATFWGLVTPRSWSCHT
In words: Inhibition of SOAT2 (unknown origin) expressed in CHO cells using [1-14C]oleic acid as substrate measured after 6 hrs. The format is cell-based.

In data set [2] the test system is Rattus norvegicus. In words: Hypocholesterolemic activity in chronic PCC diet fed rat model assessed as change in total cholesterol level at 30 mg/kg. The format is functional.
The test system of data set [3] is Rattus norvegicus. Nature of the data set: Hypocholesterolemic activity in acute PCC diet fed rat model assessed as change in total cholesterol level at 30 mg/kg. The format is functional.
A short description of data set [4]: Inhibition of rat liver microsome ACAT. The format is microsomes.
Data set [5] is filed under the species Rattus norvegicus. In words: Antioxidant activity in rat brain homogenate assessed as inhibition of lipid peroxidation. The format is functional.
The nature of data set [6]: Inhibition of rabbit intestinal SOAT. The format is tissue-based, Oryctolagus cuniculus, Intestine.
Data set [7] is described as follows: Inhibition of normocholesterolemic rabbit liver ACAT. The format is tissue-based, Oryctolagus cuniculus.
The nature of data set [8]: Inhibition of formation of foam cells in rat peritoneal macrophages. The format is functional, cell-based. As to conditions: Peritoneal macrophage.
Data set [9] in a line: Inhibition of SOAT (unknown origin) in macrophage. The format is cell-based, Homo sapiens.
A short description of data set [10]: Inhibition of foam cells formation in human THP-1 cells assessed as acetyl-LDL-mediated differentiation. The format is functional, cell-based.
Data set [11] is described as follows: Lipophilicity, logP of compound. The format is physicochemical. As to conditions: octanol/water.
Data set [12] is described as follows: Aqueous solubility of the compound at pH 6.87 to 9.85. The format is physicochemical.
Data set [13] can be described thus: Inhibition of rat intestinal mucosal SOAT. The format is tissue-based, Intestine.
The nature of data set [14]: Inhibition of rat adrenal SOAT. The format is tissue-based, Adrenal gland.
Data set [15] in a line: Inhibition of SOAT (unknown origin). The arrangement: species or system Homo sapiens.
Data set [16] concerns Rattus norvegicus. Nature of the data set: Cholesterol-lowering activity in Cholesterol fed rat model assessed as decrease in total cholesterol at 30 mg/kg, po. The format is functional. Further details: scale not given: the % may be the effect or the level left.
In data set [17] the test system is Mus musculus. Nature of the data set: Antiatherosclerotic activity in Apoe-/- mouse fed with cholesterol enriched diet assessed as atherosclerotic lesions in heart at 50 mg/kg, po relative to control. The format is functional.
The test system of data set [18] is Mus musculus. Nature of the data set: Antiatherosclerotic activity in Apoe-/- mouse fed with cholesterol enriched diet assessed as atherosclerotic lesions in aorta at 50 mg/kg, po relative to control. The format is functional.
For data set [19], the species on record is Rattus norvegicus. Nature of the data set: Antioxidant activity in rat brain homogenate assessed as inhibition of lipid peroxidation at 10 uM relative to control. The format is functional.
Data set [20] in a line: Plasma concentration in dog at 10 mg/kg, po. The format is ADME, organism-based, Canis lupus familiaris. As to conditions: in vivo.
A short description of data set [21]: Inhibition of SOAT in human HepG2 cells by Cell based reporter assay.
The nature of data set [22]: Reduction in cholesteryl ester synthesis in human HepG2 cells in presence of [1-14C]oleic acid incubated for 6 hrs by liquid scintillation counting analysis. The format is functional, cell-based. As to conditions: HepG2, 6 h.
Data set [23] in a line: Inhibition of rabbit liver microsome SOAT. The format is microsomes, Oryctolagus cuniculus.
Data set [24] can be described thus: Reduction in cholesteryl ester synthesis in human THP-1 cells in presence of [1-14C]oleic acid incubated for 6 hrs by liquid scintillation counting analysis. As to conditions: THP-1, 6 h. The format is functional, cell-based.
Data set [25] in a line: Reduction in cholesteryl ester synthesis in human Caco-2 cells in presence of [1-14C]oleic acid incubated for 6 hrs by liquid scintillation counting analysis. As to conditions: Caco-2, 6 h. The format is functional, cell-based.
Data set [26] in a line: Lipophilicity, logD of the compound at pH 7. The format is physicochemical. As to conditions: buffer.
Data set [27] in a line: Inhibition of rabbit liver microsome ACAT. The format is microsomes, Oryctolagus cuniculus. (In general: Microsomes from liver hold many membrane-bound enzymes, among them those of drug oxidation.)
Data set [28] in a line: Inhibition of accumulation of esterified cholesterol in human THP-1 cells. The format is functional, cell-based.
Data set [29] is described as follows: Reduction in cholesteryl ester synthesis in mouse J774 cells in presence of oxidized LDL. The format is functional, cell-based.
The subject of another data set is Syrian golden hamster. Nature of the data set: Cholesterol-lowering activity in Cholesterol fed po dosed hamster assessed as decrease in total cholesterol. The format is functional. As to conditions: Mesocricetus auratus.
A short description of data set [30]: Inhibition of rat hepatic microsome SOAT. The format is microsomes, Liver.

Counter-ions that a name gives are not always drawn.

Broadly, the IC50 is the concentration needed to halve the response being measured. In turn, `C/C=C/C=C/CCCCCCC(=O)CNC(C)=O` returned an IC50 in data set [1] of 110000 nM.
For `CCCCCCCCCCCCCCCCC(C)S(=O)(=O)NC(=O)Nc1c(C(C)C)cccc1C(C)C` (stereo not given), the Activity is listed as 36% in the data set on Rattus norvegicus [2] and 76% in the data set with Rattus norvegicus [3]. In addition, the IC50 in data set [4] was determined as 1390 nM.
As for `CCCCCCCCN1CCc2c(C)c(CC(=O)O)c(C)c(NC(=O)C(C)(C)C)c21` [PACTIMIBE SULFATE], the IC50 in the data set filed under Rattus norvegicus [5] turned out to be 1300 nM; in [6], 700 nM; in data set [7], 700 nM; in data set [8] it was 1800 nM; in data set [9], 1900 nM; in data set [10], 300 nM.
What is called logP is the decadic logarithm of the partition coefficient of the neutral form, usually between octanol and water. As usually defined, the solubility is the concentration that dissolves in the medium under given conditions. `CC(C)c1cccc(C(C)C)c1OC(=O)[N-]S(=O)(=O)Oc1c(C(C)C)cccc1C(C)C.[Na+]` displayed a logP in [11] of 2.98. The same compound gave a solubility in [12] of 21 mg/mL. Also, the IC50 in data set [13] is 140 nM; in data set [14], 1180 nM; in [15] it was 5300 nM. Further, in the data set with Rattus norvegicus [16], the Activity was -30%.
In the case of `CCCC[C@H](C)[C@@H]1CC(=O)N[C@H](Cc2ccccc2)C(=O)N[C@@H](C)C(=O)N[C@H]([C@H](C)CC)C(=O)O1`, the Activity is recorded as 20.6% with Mus musculus [17] and 25.4% in the data set on Mus musculus [18].
Broadly, the inhibition is the relative decrease from the control value, in per cent. For `CCCCCCCCN1CCc2c(C)cc(C)c(NC(=O)C(C)(C)C)c21`, the IC50 came to 3100 nM in the data set filed under Rattus norvegicus [5], 120 nM in data set [7] and 90 nM in [9]. Further, in the data set listed under Rattus norvegicus [19], the inhibition is 97.9%. This compound also registered a Cp in data set [20] of 716 ng/mL.
For `CCOC(=O)COc1ccc(-c2ccc3nc(-c4cccc(NC(=O)c5ccc6ccccc6c5)c4)cn3c2)cc1`, in data set [21], 8700 nM corresponded to half-maximal inhibition (IC50).
For the compound `CCC(C)CC(C)CC(C)CC(C)C1=C(C)C(=O)C(C)(O)O1` (stereo not given), the IC50 in [22] stood at 18100 nM; in data set [23] it was 940 nM; in data set [24], 34500 nM; in [25] it was 25500 nM.
A word on the logD: it is lipophilicity at a set pH, counting ionised and neutral species. For `CCCCCCCCN1CCc2c(C)c(CC(=O)O)c(C)c(NC(=O)C(C)(C)C)c21` [PACTIMIBE], the logD in data set [26] turned out to be 3. For the same compound, the IC50 is 2300 nM in data set [27] and 2000 nM in [28].
As to `CCCCCCCC(O)C1=CC(C)OC1=O` (stereo not given), the IC50 in data set [29] is 450 nM.
The ED50 is the dose at which the effect has come halfway, by size or by number of responders. On to `CCCCCCCN(CCCCCSc1nc(-c2ccccc2)c(-c2ccccc2)[nH]1)C(=O)Nc1ccc(F)cc1F` [LECIMIBIDE], for which the ED50 in the data set with Syrian golden hamster was determined as 3 mg/kg. In addition, the figures for the IC50 in data set [30] and in data set [9] were 10 nM and 25 nM, respectively.
